Laboratory results reported in patent EP0377642B1, “HERBICIDES FOR WEED CONTROL IN RICE” (E.I. DU PONT DE NEMOURS AND COMPANY, priority 1987, dated 1989).
Read-outs that look alike come from different tables or passages of the source.

Assays:
Format in all cases: in vivo
direct seeded rice [1] = experiment: Field test applied 7 DAS in direct seeded rice in the Philippines, phytotoxicity (Table 14); conditions: 30 DAA
From the text: (§1) Methyl 2-[[[[(4-methoxy-6-methyl-1,3,5-triazin-2-yl)amino]carbonyl]amino]sulfonyl]benzoate (Compound 1) and mixtures thereof with other compounds were applied as a spray (using a hand sprayer) to rice (either transplanted or direct seeded) in several rice growing areas in Southeast Asia and in the U.S. Tables 1-28 contain the results of these tests and clearly exemplify the utility of this invention. The details of each application are included in the appropriate table. [drawing 2]

Cyperus iria [2] = experiment: Field test applied at 25 DAS in direct seeded rice (Table 13); conditions: scale 0-10
From the text: as §1

Sphenoclea zeylanica [3] = experiment: as above; conditions: scale 0-10
From the text: as §1

WEED [4] = experiment: Field test applied 7 DAS in direct seeded rice in the Philippines, weed cover (Table 14); conditions: 47 DAA
From the text: as §1

direct seeded rice [5] = conditions: for PHYTO at 2WAA: scale 0-10
From the text: as §1

rice = experiment: Herbicidal efficacy with Bensulfuron methyl and 2,4-D in Thailand (Table 19); conditions: 13 days after treatment
From the text: as §1

Cuperus difformis = experiment: as above; conditions: 13 days after treatment
From the text: as §1

Sphenoclea zeylanica [6] = experiment: as above; conditions: 13 days after treatment
From the text: as §1

Jussiaea linifolia = experiment: Field test applied at 18 DAS in direct seeded rice (Table 12); conditions: scale 0-10
From the text: as §1

FIMBRISTYLIS MILIACEA = experiment: as above; conditions: scale 0-10
From the text: as §1

Cyperus iria [7] = experiment: as above; conditions: scale 0-10
From the text: as §1

Sphenoclea zeylanica [8] = experiment: as above; conditions: scale 0-10
From the text: as §1

direct seeded rice [9] = experiment: Field test with Bensulfuron methyl in direct seeded rice, yield (Table 10)
From the text: as §1

WEED [10] = experiment: Effects in combination with Bensulfuron Methyl and Thiobencarb or Pretilachlor on weed control (Table 24); conditions: rate 25 g ai/ha, scale 0 to 10, treated at 1.0 leaf stage, evaluated four weeks later
From the text: as §1

COC(=O)c1ccccc1CS(=O)(=O)NC(=O)Nc1nc(OC)cc(OC)n1 [Bensulfuron methyl, methyl 2-[[[[[(4,6-dimethoxy-2-pyrimidinyl)amino]carbonyl]amino]sulfonyl]methyl]benzoate]
PHYTO (1-9) (direct seeded rice [1]; 8.25 G AI/HA): 1.3
PHYTO (1-9) (direct seeded rice [1]; 12.0 G AI/HA): 1
PHYTO (1-9) (direct seeded rice [1]; 16.50 G AI/HA): 1.7
WEED CONTROL at 6 WAA CI (Cyperus iria [2]; 10 GM.A.I./HA): 9.67
WEED CONTROL at 6 WAA CI (Cyperus iria [2]; 15 GM.A.I./HA): 9.83
WEED CONTROL at 6 WAA CI (Cyperus iria [2]; 20 GM.A.I./HA): 10
WEED CONTROL at 6 WAA CI (Cyperus iria [2]; 30 GM.A.I./HA): 10
WEED CONTROL at 6 WAA SZ (Sphenoclea zeylanica [3]; 10 GM.A.I./HA): 9.17
WEED CONTROL at 6 WAA SZ (Sphenoclea zeylanica [3]; 15 GM.A.I./HA): 9.80
WEED CONTROL at 6 WAA SZ (Sphenoclea zeylanica [3]; 20 GM.A.I./HA): 9.50
WEED CONTROL at 6 WAA SZ (Sphenoclea zeylanica [3]; 30 GM.A.I./HA): 9.93
% WEED COVER (WEED [4]; 8.25 G AI/HA): 29%
% WEED COVER (WEED [4]; 12.0 G AI/HA): 20%
% WEED COVER (WEED [4]; 16.50 G AI/HA): 28%
YIELD (direct seeded rice [5]; 7 DAS, 10 GM.A.I./HA): 4.92 TONS/HA
PHYTO at 2WAA (direct seeded rice [5]; 7 DAS, 10 GM.A.I./HA): 0
YIELD (direct seeded rice [5]; 7 DAS, 15 GM.A.I./HA): 4.99 TONS/HA
PHYTO at 2WAA (direct seeded rice [5]; 7 DAS, 15 GM.A.I./HA): 0
YIELD (direct seeded rice [5]; 7 DAS, 20 GM.A.I./HA): 5.01 TONS/HA
PHYTO at 2WAA (direct seeded rice [5]; 7 DAS, 20 GM.A.I./HA): 0
YIELD (direct seeded rice [5]; 7 DAS, 30 GM.A.I./HA): 4.67 TONS/HA
PHYTO at 2WAA (direct seeded rice [5]; 7 DAS, 30 GM.A.I./HA): 0
YIELD (direct seeded rice [5]; 18 DAS, 10 GM.A.I./HA): 4.61 TONS/HA
PHYTO at 2WAA (direct seeded rice [5]; 18 DAS, 10 GM.A.I./HA): 0
YIELD (direct seeded rice [5]; 18 DAS, 15 GM.A.I./HA): 4.49 TONS/HA
PHYTO at 2WAA (direct seeded rice [5]; 18 DAS, 15 GM.A.I./HA): 0
YIELD (direct seeded rice [5]; 18 DAS, 20 GM.A.I./HA): 4.61 TONS/HA
PHYTO at 2WAA (direct seeded rice [5]; 18 DAS, 20 GM.A.I./HA): 0
YIELD (direct seeded rice [5]; 18 DAS, 30 GM.A.I./HA): 5.17 TONS/HA
PHYTO at 2WAA (direct seeded rice [5]; 18 DAS, 30 GM.A.I./HA): 0
% CONTROL OR INJURY RICE (rice; 10 GAI/HA): 0%
% CONTROL OR INJURY RICE (rice; 15 GAI/HA): 0%
% CONTROL OR INJURY RICE (rice; 20 GAI/HA): 0%
% CONTROL OR INJURY CD (Cuperus difformis; 10 GAI/HA): 100%
% CONTROL OR INJURY CD (Cuperus difformis; 15 GAI/HA): 100%
% CONTROL OR INJURY CD (Cuperus difformis; 20 GAI/HA): 100%
% CONTROL OR INJURY SZ (Sphenoclea zeylanica [6]; 10 GAI/HA): 88%
% CONTROL OR INJURY SZ (Sphenoclea zeylanica [6]; 15 GAI/HA): 100%
% CONTROL OR INJURY SZ (Sphenoclea zeylanica [6]; 20 GAI/HA): 100%
WEED CONTROL at 6 WAA JL (Jussiaea linifolia; 10 GM.A.I./HA): 8.0
WEED CONTROL at 6 WAA JL (Jussiaea linifolia; 15 GM.A.I./HA): 7.67
WEED CONTROL at 6 WAA JL (Jussiaea linifolia; 20 GM.A.I./HA): 9.50
WEED CONTROL at 6 WAA JL (Jussiaea linifolia; 30 GM.A.I./HA): 8.67
WEED CONTROL at 6 WAA FM (FIMBRISTYLIS MILIACEA; 10 GM.A.I./HA): 10
WEED CONTROL at 6 WAA FM (FIMBRISTYLIS MILIACEA; 15 GM.A.I./HA): 9.67
WEED CONTROL at 6 WAA FM (FIMBRISTYLIS MILIACEA; 20 GM.A.I./HA): 10
WEED CONTROL at 6 WAA FM (FIMBRISTYLIS MILIACEA; 30 GM.A.I./HA): 10
WEED CONTROL at 6 WAA CI (Cyperus iria [7]; 10 GM.A.I./HA): 6.67
WEED CONTROL at 6 WAA CI (Cyperus iria [7]; 15 GM.A.I./HA): 9.0
WEED CONTROL at 6 WAA CI (Cyperus iria [7]; 20 GM.A.I./HA): 9.33
WEED CONTROL at 6 WAA CI (Cyperus iria [7]; 30 GM.A.I./HA): 9.67
WEED CONTROL at 6 WAA SZ (Sphenoclea zeylanica [8]; 10 GM.A.I./HA): 5.67
WEED CONTROL at 6 WAA SZ (Sphenoclea zeylanica [8]; 15 GM.A.I./HA): 6.67
WEED CONTROL at 6 WAA SZ (Sphenoclea zeylanica [8]; 20 GM.A.I./HA): 5.67
WEED CONTROL at 6 WAA SZ (Sphenoclea zeylanica [8]; 30 GM.A.I./HA): 9.67
YIELD (direct seeded rice [9]; 10 GAI/HA): 3.04 TONS/HA
YIELD (direct seeded rice [9]; 20 GAI/HA): 3.34 TONS/HA
WEED CONTROL RATINGS CD (WEED [10]; Cyperus difformis): 1
WEED CONTROL RATINGS CS (WEED [10]; Cyperus serotinus): 6
